This note sets out measurements from patent US10017506B2, “ATX modulating agents” (BIOGEN MA INC., priority 2012, dated 2018).

SMILES strings stand for the structures.

The first experiment concerns the target T1, Human ATX protein (Homo sapiens, UniProt Q13822).
T1 construct: made in house
The experiment in a line: ATX biochemical FRET assay with FS-3 substrate. As to conditions: FRET substrate FS-3 2 μM, ATX 1.0 μg/mL, 30 minutes pre-incubation, 2 hours at room temperature; read-out: IC50. The procedure, abridged:
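Enzyme at 1.0 μg/mL final, pre-incubated with compound (10-point, 3-fold series) for 30 min at RT in Tris pH 7.4 buffer with NaCl, KCl, CaCl2, MgCl2 and 1 mg/mL fatty-acid-free BSA. After FS-3 addition, 2 h at RT protected from light; fluorescence at 485/538 nm.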
In the case of `O=C(O)CC1CCC(NCc2ccc3ccc(O[C@H]4CC[C@@H](C(F)(F)F)CC4)c(C(F)(F)F)c3c2)CC1` (stereo partly drawn) [Example 126, 2-(4-(((8-(trifluoromethyl)-7-((cis-4-(trifluoromethyl)cyclohexyl)oxy)naphthalen-2-yl)methyl)amino)cyclohexyl)acetic acid], the IC50 was at most 500 nM.
For the molecule `O=C(O)[C@H]1CC[C@@H](NCc2ccc3ccc(O[C@H]4CC[C@@H](C(F)(F)F)CC4)c(C(F)(F)F)c3c2)CC1` [Example 124, cis-4-(((8-(trifluoromethyl)-7-((cis-4-(trifluoromethyl)cyclohexyl)oxy)naphthalen-2-yl)methyl)amino)cyclohexanecarboxylic acid], the half-inhibitory concentration (IC50) was at most 250 nM.
As for `CC[C@H]1CC[C@@H](Oc2ccc3ccc(C(C)NC45CCC(C(=O)O)(CC4)C5)cc3c2C(F)(F)F)CC1` (stereo partly drawn) [Example 130, 4-((1-(7-((cis-4-ethylcyclohexyl)oxy)-8-(trifluoromethyl)naphthalen-2-yl)ethyl)amino)bicyclo[2.2.1]heptane-1-carboxylic acid], the 50% inhibitory concentration (IC50) was at most 250 nM.
Turning to `CC(C)(C)[C@H]1CC[C@H](Nc2cc3cc(C(=O)NC4CCCC(C(=O)O)C4)ccc3cn2)CC1` (stereo partly drawn) [Example 150, 3-(3-((trans-4-(tert-butyl)cyclohexyl)amino)isoquinoline-6-carboxamido)cyclohexanecarboxylic acid], the half-maximal inhibitory concentration (IC50) was at most 250 nM.
The same measure, in the same setting: in the case of `CC[C@H]1CC[C@@H](Oc2ccc3ccc(C(C)N4CCC(C(=O)O)CC4)cc3c2C#N)CC1` (stereo partly drawn) [Example 72, 1-(1-(8-cyano-7-((cis-4-ethylcyclohexyl)oxy)naphthalen-2-yl)ethyl)piperidine-4-carboxylic acid] it was at most 500 nM; in that of `CC(N[C@H]1C[C@@H](C(=O)O)C1)c1ccc2ccc(O[C@H]3CC[C@@H](C)CC3)c(C(F)(F)F)c2c1` (stereo partly drawn) [Example 110, cis-3-((1-(7-((cis-4-methylcyclohexyl)oxy)-8-(trifluoromethyl)naphthalen-2-yl)ethyl)amino)cyclobutanecarboxylic acid], at most 500 nM; in that of `O=C(O)C1CCCN(Cc2ccc3ccc(O[C@H]4CC[C@@H](C(F)(F)F)CC4)c(C(F)(F)F)c3c2)CC1` (stereo partly drawn) [Example 123, 1-((8-(trifluoromethyl)-7-((cis-4-(trifluoromethyl)cyclohexyl)oxy)naphthalen-2-yl)methyl)azepane-4-carboxylic acid], at most 250 nM.
Consider `CC[C@H]1CC[C@@H](Oc2ccc3ccc(C(C)N[C@H]4CC[C@@H](C(=O)O)CC4)cc3c2C(F)(F)F)CC1` (stereo partly drawn) [Example 134, cis-4-((1-(7-((cis-4-ethylcyclohexyl)oxy)-8-(trifluoromethyl)naphthalen-2-yl)ethyl)amino)cyclohexanecarboxylic acid], for which the IC50 was at most 100 nM.
As for `CCC(N[C@H]1CC[C@@H](C(=O)O)CC1)c1ccc2ccc(O[C@H]3CC[C@@H](CC)CC3)c(C(F)(F)F)c2c1` (stereo partly drawn) [Example 145, cis-4-((1-(7-((cis-4-ethylcyclohexyl)oxy)-8-(trifluoromethyl)naphthalen-2-yl)propyl)amino)cyclohexanecarboxylic acid], the half-inhibitory concentration (IC50) was at most 100 nM.
Turning to `CC[C@H]1CC[C@@H](Oc2ccc3ccc([C@@H](C)N[C@H]4C[C@@H](C(=O)O)C4(C)C)cc3c2C(F)(F)F)CC1` [Example 118d, (1R,3S)-3-(((R)-1-(7-((cis-4-ethylcyclohexyl)oxy)-8-(trifluoromethyl)naphthalen-2-yl)ethyl)amino)-2,2-dimethylcyclobutanecarboxylic acid], the IC50 was at most 500 nM.

Staying with this experiment, now noted: IC50, FRET substrate FS-3 2 μM, ATX 1.0 μg/mL, 30 minutes pre-incubation, 2 hours at room temperature.
For `CC(C)[C@H]1CC[C@@H](Oc2ccc3ccc(CN4C5CCCC4CC(C(=O)O)C5)cc3c2C(F)(F)F)CC1` (stereo partly drawn) [Example 108, 9-((7-((cis-4-isopropylcyclohexyl)oxy)-8-(trifluoromethyl)naphthalen-2-yl)methyl)-9-azabicyclo[3.3.1]nonane-3-carboxylic acid], the half-maximal inhibitory concentration (IC50) was at most 100 nM.
Take `C[C@H]1CC[C@@H](Oc2ccc3cc(F)c(CN4C5CCCC4CC(C(=O)O)C5)cc3c2C(F)(F)F)CC1` (stereo partly drawn) [Example 138, 9-((3-fluoro-7-((cis-4-methylcyclohexyl)oxy)-8-(trifluoromethyl)naphthalen-2-yl)methyl)-9-azabicyclo[3.3.1]nonane-3-carboxylic acid]: the IC50 was at most 250 nM.
On the same count and under the same terms, under `CC(c1ccc2ccc(O[C@H]3CC[C@@H](C)CC3)c(Cl)c2c1)N1C2CCCC1CC(C(=O)O)C2` (stereo partly drawn) [Example 91, 9-(1-(8-chloro-7-((cis-4-methylcyclohexyl)oxy)naphthalen-2-yl)ethyl)-9-azabicyclo[3.3.1]nonane-3-carboxylic acid] stands at most 250 nM.
`O=C(O)C1CC2CCC(C1)N2C(=O)c1ccc2ccc(O[C@H]3CC[C@@H](C(F)(F)F)CC3)c(C(F)(F)F)c2c1` (relative stereo) [Example 23, 8-(8-(trifluoromethyl)-7-((cis-4-(trifluoromethyl)cyclohexyl)oxy)-2-naphthoyl)-8-azabicyclo[3.2.1]octane-3-carboxylic acid] gave a half-maximal inhibitory concentration (IC50) of at most 250 nM.
Still for that read-out and setting: in the case of `CCC(c1ccc2ccc(O[C@H]3CC[C@@H](C)CC3)c(C(F)(F)F)c2c1)N1C2CCC1CC(C(=O)O)C2` (relative stereo) [Example 18, 8-(1-(7-((cis-4-methylcyclohexyl)oxy)-8-(trifluoromethyl)naphthalen-2-yl)propyl)-8-azabicyclo[3.2.1]octane-3-carboxylic acid] it was at most 250 nM; in that of `C[C@H]1CC[C@@H](Oc2ccc3ccc(C(=O)N4C5CCCC4CC(C(=O)O)C5)cc3c2C(F)(F)F)CC1` (some centres unmarked) [Example 13, 9-[7-(4-methyl-cyclohexyloxy)-8-trifluoromethyl-naphthalene-2-carbonyl]-9-aza-bicyclo [3.3.1]nonane-3-carboxylic acid], at most 500 nM.
Molecule `CCC(c1ccc2ccc(O[C@H]3CC[C@@H](C)CC3)c(C(F)(F)F)c2c1)N1C2CCCC1CC(C(=O)O)C2` (stereo partly drawn) [Example 104, 9-(1-(7-((cis-4-methylcyclohexyl)oxy)-8-(trifluoromethyl)naphthalen-2-yl)propyl)-9-azabicyclo[3.3.1]nonane-3-carboxylic acid] yielded an IC50 of at most 250 nM.
`C[C@H]1CC[C@@H](Oc2ccc3ccc(CN4C5CCC4CC(C(=O)O)C5)cc3c2C(F)(F)F)CC1` (stereo partly drawn) [Example 3, 8-[7-(cis-4-methyl-cyclohexyloxy)-8-trifluoromethyl-naphthalen-2-ylmethyl]-8-aza-bicyclo[3.2.1]octane-3-carboxylic acid] yielded a 50% inhibitory concentration (IC50) of at most 100 nM.
The same measure, in the same setting: in the case of `CC(c1ccc2ccc(O[C@H]3CC[C@@H](C(F)(F)F)CC3)c(C#N)c2c1)N1C2CCCC1CC(C(=O)O)C2` (stereo partly drawn) [Example 38, 9-(1-(8-cyano-7-((cis-4-(trifluoromethyl)cyclohexyl)oxy)naphthalen-2-yl)ethyl)-9-azabicyclo[3.3.1]nonane-3-carboxylic acid] it was at most 100 nM; in that of `C[C@H](c1ccc2ccc(O[C@H]3CC[C@@H](C(F)(F)F)CC3)c(C(F)(F)F)c2c1)N1C2CCCC1CC(C(=O)O)C2` (stereo partly drawn) [Example 137b, 9-((R)-1-(8-(trifluoromethyl)-7-((cis-4-(trifluoromethyl)cyclohexyl)oxy)naphthalen-2-yl)ethyl)-9-azabicyclo[3.3.1]nonane-3-carboxylic acid], at most 100 nM.
